Measurements taken from ChEMBL document CHEMBL5357035, “Previously Uncharacterized Variants, OCF-E-OCF-J, of the Antifungal Occidiofungin Produced by Burkholderia contaminans MS14” (2024).
Values after ≈ are worked out from the molar mass of the structure shown.

How the values were obtained:
Format in all cases: functional
[1] = system: Candida albicans; test: Antifungal activity against Candida albicans ATCC3147 assessed as reduction in fungal growth measured after 24 hrs by CLSI protocol based method
[2] = system: Nakaseomyces glabratus; test: Antifungal activity against Candida glabrata ATCC2001 assessed as reduction in fungal growth measured after 24 hrs by CLSI protocol based method
[3] = system: [Candida] auris; test: Antifungal activity against Candida auris MYA-500 assessed as reduction in fungal growth measured after 24 hrs by CLSI protocol based method; conditions: Candidozyma auris

MIC [1] | MIC [2] | MIC [3] | SMILES
> 8 µg/mL | 8 µg/mL (≈ 5.78 µM) | – | CCCCCCCCCCCCNC(=O)C[C@@H]1NC(=O)CNC(=O)[C@@H](CCN)NC(=O)[C@@H]([C@H](O)c2ccc(O)cc2)NC(=O)[C@H](CO)NC(=O)C[C@@H](C[C@@H](O)[C@@H](O)[C@@H](CCCCCCCCCCC)O[C@H]2OC[C@@H](O)[C@H](O)[C@H]2O)NC(=O)[C@H]([C@H](O)C(N)=O)NC(=O)[C@@H](CO)NC1=O
0.5 µg/mL (≈ 0.399 µM) | 0.5 µg/mL (≈ 0.399 µM) | – | C#CCCNC(=O)C[C@@H]1NC(=O)CNC(=O)[C@@H](CCN)NC(=O)[C@@H]([C@H](O)c2ccc(O)cc2)NC(=O)[C@H](CO)NC(=O)C[C@@H](C[C@@H](O)[C@@H](O)[C@@H](CCCCCCCCCCC)O[C@H]2OC[C@@H](O)[C@H](O)[C@H]2O)NC(=O)[C@H](CC(N)=O)NC(=O)[C@@H](CO)NC1=O
2 µg/mL (≈ 1.63 µM) | 2 µg/mL (≈ 1.63 µM) | 1 µg/mL (≈ 0.814 µM) | CCCCCCCCCCC[C@@H](O[C@H]1OC[C@@H](O)[C@H](O)[C@H]1O)[C@H](O)[C@H](O)C[C@@H]1CC(=O)N[C@@H](CO)C(=O)N[C@H]([C@H](O)c2ccc(O)cc2)C(=O)N[C@H](CCN)C(=O)NCC(=O)N[C@@H](CC(=O)NCC)C(=O)N[C@H](CO)C(=O)N[C@@H](CC(N)=O)C(=O)N1
2 µg/mL (≈ 1.66 µM) | 2 µg/mL (≈ 1.66 µM) | 1 µg/mL (≈ 0.832 µM) | CCCCCCCCCCC[C@@H](O[C@H]1OC[C@@H](O)[C@H](O)[C@H]1O)[C@H](O)[C@H](O)C[C@@H]1CC(=O)N[C@@H](CO)C(=O)N[C@H]([C@H](O)c2ccc(O)cc2)C(=O)N[C@H](CCN)C(=O)NCC(=O)N[C@@H](CC(=O)O)C(=O)N[C@H](CO)C(=O)N[C@@H](CC(N)=O)C(=O)N1
> 8 µg/mL | 8 µg/mL (≈ 5.85 µM) | – | CCCCCCCCCCCCNC(=O)C[C@@H]1NC(=O)CNC(=O)[C@@H](CCN)NC(=O)[C@@H]([C@H](O)c2ccc(O)cc2)NC(=O)[C@H](CO)NC(=O)C[C@@H](C[C@@H](O)[C@@H](O)[C@@H](CCCCCCCCCCC)O[C@H]2OC[C@@H](O)[C@H](O)[C@H]2O)NC(=O)[C@H](CC(N)=O)NC(=O)[C@@H](CO)NC1=O
0.5 µg/mL (≈ 0.412 µM) | 0.5 µg/mL (≈ 0.412 µM) | 0.5 µg/mL (≈ 0.412 µM) | CCCCCCCCCCC[C@@H](O[C@H]1OC[C@@H](O)[C@H](O)[C@H]1O)[C@H](O)[C@H](O)C[C@@H]1CC(=O)N[C@@H](CO)C(=O)N[C@H]([C@H](O)c2ccc(O)cc2)C(=O)N[C@H](CCN)C(=O)NCC(=O)N[C@@H](CC(=O)NC)C(=O)N[C@H](CO)C(=O)N[C@@H](CC(N)=O)C(=O)N1
0.5 µg/mL (≈ 0.402 µM) | 0.5 µg/mL (≈ 0.402 µM) | 1 µg/mL (≈ 0.805 µM) | CCCCCCCCCCC[C@@H](O[C@H]1OC[C@@H](O)[C@H](O)[C@H]1O)[C@H](O)[C@H](O)C[C@@H]1CC(=O)N[C@@H](CO)C(=O)N[C@H]([C@H](O)c2ccc(O)cc2)C(=O)N[C@H](CCN)C(=O)NCC(=O)N[C@@H](CC(=O)NCCC)C(=O)N[C@H](CO)C(=O)N[C@@H](CC(N)=O)C(=O)N1

The remaining lines, values behind:

SMILES | MIC [1] | MIC [2] | MIC [3]
CCCCCCCCCCC[C@@H](O[C@H]1OC[C@@H](O)[C@H](O)[C@H]1O)[C@H](O)[C@H](O)C[C@@H]1CC(=O)N[C@@H](CO)C(=O)N[C@H]([C@H](O)c2ccc(O)cc2)C(=O)N[C@H](CCN)C(=O)NCC(=O)N[C@@H](CC(=O)N(C)C)C(=O)N[C@H](CO)C(=O)N[C@@H]([C@H](O)C(N)=O)C(=O)N1 | 1 µg/mL (≈ 0.804 µM) | 0.5 µg/mL (≈ 0.402 µM) | 0.5 µg/mL (≈ 0.402 µM)
CCCCCCCCCCC[C@@H](O[C@H]1OC[C@@H](O)[C@H](O)[C@H]1O)[C@H](O)[C@H](O)C[C@@H]1CC(=O)N[C@@H](CO)C(=O)N[C@H]([C@H](O)c2ccc(O)cc2)C(=O)N[C@H](CCN)C(=O)NCC(=O)N[C@@H](CC(N)=O)C(=O)N[C@H](CO)C(=O)N[C@@H](CC(N)=O)C(=O)N1 | 0.125 µg/mL (≈ 0.104 µM) | 0.25 µg/mL (≈ 0.208 µM) | 0.25 µg/mL (≈ 0.208 µM)
CCCCCCCCCCC[C@@H](O[C@H]1OC[C@@H](O)[C@H](O)[C@H]1O)[C@H](O)[C@H](O)C[C@@H]1CC(=O)N[C@@H](CO)C(=O)N[C@H]([C@H](O)c2ccc(O)cc2)C(=O)N[C@H](CCN)C(=O)NCC(=O)N[C@@H](CC(=O)NC)C(=O)N[C@H](CO)C(=O)N[C@@H]([C@H](O)C(N)=O)C(=O)N1 | 0.5 µg/mL (≈ 0.406 µM) | 0.5 µg/mL (≈ 0.406 µM) | 0.5 µg/mL (≈ 0.406 µM)
C#CCCNC(=O)C[C@@H]1NC(=O)CNC(=O)[C@@H](CCN)NC(=O)[C@@H]([C@H](O)c2ccc(O)cc2)NC(=O)[C@H](CO)NC(=O)C[C@@H](C[C@@H](O)[C@@H](O)[C@@H](CCCCCCCCCCC)O[C@H]2OC[C@@H](O)[C@H](O)[C@H]2O)NC(=O)[C@H]([C@H](O)C(N)=O)NC(=O)[C@@H](CO)NC1=O | 0.5 µg/mL (≈ 0.394 µM) | 0.5 µg/mL (≈ 0.394 µM) | –
CCCCCCCCCCC[C@@H](O[C@H]1OC[C@@H](O)[C@H](O)[C@H]1O)[C@H](O)[C@H](O)C[C@@H]1CC(=O)N[C@@H](CO)C(=O)N[C@H]([C@H](O)c2ccc(O)cc2)C(=O)N[C@H](CCN)C(=O)NCC(=O)N[C@@H](CC(=O)NCCC)C(=O)N[C@H](CO)C(=O)N[C@@H]([C@H](O)C(N)=O)C(=O)N1 | 0.5 µg/mL (≈ 0.397 µM) | 0.5 µg/mL (≈ 0.397 µM) | 1 µg/mL (≈ 0.795 µM)
CCCCCCCCCCC[C@@H](O[C@H]1OC[C@@H](O)[C@H](O)[C@H]1O)[C@H](O)[C@H](O)C[C@@H]1CC(=O)N[C@@H](CO)C(=O)N[C@H]([C@H](O)c2ccc(O)cc2)C(=O)N[C@H](CCN)C(=O)NCC(=O)N[C@@H](CC(N)=O)C(=O)N[C@H](CO)C(=O)N[C@@H]([C@H](O)C(N)=O)C(=O)N1 | 0.125 µg/mL (≈ 0.103 µM) | 0.25 µg/mL (≈ 0.206 µM) | 0.25 µg/mL (≈ 0.206 µM)
CCCCCCCCCCC[C@@H](O[C@H]1OC[C@@H](O)[C@H](O)[C@H]1O)[C@H](O)[C@H](O)C[C@@H]1CC(=O)N[C@@H](CO)C(=O)N[C@H]([C@H](O)c2ccc(O)cc2)C(=O)N[C@H](CCN)C(=O)NCC(=O)N[C@@H](CC(=O)O)C(=O)N[C@H](CO)C(=O)N[C@@H]([C@H](O)C(N)=O)C(=O)N1 | 2 µg/mL (≈ 1.64 µM) | 2 µg/mL (≈ 1.64 µM) | 1 µg/mL (≈ 0.821 µM)
CCCCCCCCCCC[C@@H](O[C@H]1OC[C@@H](O)[C@H](O)[C@H]1O)[C@H](O)[C@H](O)C[C@@H]1CC(=O)N[C@@H](CO)C(=O)N[C@H]([C@H](O)c2ccc(O)cc2)C(=O)N[C@H](CCN)C(=O)NCC(=O)N[C@@H](CC(=O)NCC)C(=O)N[C@H](CO)C(=O)N[C@@H]([C@H](O)C(N)=O)C(=O)N1 | 2 µg/mL (≈ 1.61 µM) | 2 µg/mL (≈ 1.61 µM) | 1 µg/mL (≈ 0.804 µM)
CCCCCCCCCCC[C@@H](O[C@H]1OC[C@@H](O)[C@H](O)[C@H]1O)[C@H](O)[C@H](O)C[C@@H]1CC(=O)N[C@@H](CO)C(=O)N[C@H]([C@H](O)c2ccc(O)cc2)C(=O)N[C@H](CCN)C(=O)NCC(=O)N[C@@H](CC(=O)N(C)C)C(=O)N[C@H](CO)C(=O)N[C@@H](CC(N)=O)C(=O)N1 | 1 µg/mL (≈ 0.814 µM) | 0.5 µg/mL (≈ 0.407 µM) | 0.5 µg/mL (≈ 0.407 µM)
